The subject of data set [1] is Npc1^nih Npc1^−/− mouse brain. Briefly: qPCR of cathepsins and inflammatory markers in brain after HPβCD. It is filed as in vivo. An excerpt:
In mice, formalin fixed paraffin embedded tissue was sectioned (4-5 μm) and total RNA was isolated using RNeasy FFPE kit (Qiagen, Germantown, Md., USA) which included treatment with DNAse. Frozen human liver and cerebellum from 4 NPC patients and 4 age-, gender- and ethnicity-matched controls were obtained from the NICHD Brain and Tissue Bank for Developmental Disorders (University of Maryland, Baltimore, Md., USA), as approved by the Institutional Review Board (IRB), of the University of Notre Dame, Ind., USA (FWA 00002462). Total RNA was isolated using RNeasy kit (Qiagen, Germantown, Md., USA). Eluted RNA was further digested with RNase free DNaseI and re-purified using RNeasy column. The quality of RNA was checked using Bioanalyzer chip (Agilent Technologies, Santa Clara, Calif., USA) and quantity was determined using Nanodrop 2000 (Thermo Fisher Scientific, Waltham, Mass., USA). Quantitative PCR (qPCR) was performed using Power SYBR Green RNA-to-CT 1-Step Kit and an ABI Prism 7500 Fast real-time PCR system (Applied Biosystems, Grand Island, USA). Reaction was set in 20 μl using 100 nM primers and 5-100 ng total RNA as template. The thermal cycling parameters were as follows: step 1, 48° C. for 30 min; step 2, 95° C. for 10 min; step 3, 95° C. for 15 sec ° C.; step 4, 60° C. for 15 sec. Step 3-4 was repeated for 40 cycles followed by melt curve analysis. Specific amplification was validated by analysis of template titration, melt curves and agarose gel electrophoresis. In both mouse and human tissues, the mRNA levels were normalized to the housekeeping gene, Gapdh (Glyceraldehyde 3-phosphate dehydrogenase). Fold change was calculated by relative standard curve method after correcting PCR efficiency. In mice, the fold change in expression levels of different genes in Npc1^−/− was calculated relative to average levels of expression in Npc1^+/− mice. In human tissues, fold change in transcript expression in NPC liver and cerebellum was expressed relative to average expression in age-matched controls. Starting at P21 and once a week thereafter, Npc1^nih and Npc1^nmf164 mice were injected i.p with 20% 2-hydroxypropyl-beta-cyclodextrin (HPβCD, 4000 mg/Kg) prepared in 0.2% DMSO and 0.9% saline. Control mice received 0.2% DMSO in 0.9% saline. Blood was collected either via cheek bleed or terminal heart bleed from mice in EDTA tubes (BD Biosciences, San Jose, Calif., USA). Plasma was separated by centrifugation at 2500 rpm for 15 min and stored at −70° C. until used.
In general terms: In qPCR the cycle at which signal appears reflects the starting amount.

In data set [2] the test system is Npc1^pf/pf mice. To be noted: weekly injections to Npc1^pf/pf mice, previous study; cited from earlier work.
In data set [3] the test system is Npc1^nih Npc1^−/− mouse liver. Briefly: Immunohistochemistry of liver sections after HPβCD. It is filed as in vivo. The protocol: (§1) Mice were sacrificed by asphyxiation using CO2. The circulatory bed was washed with PBS (pH 7.4), and subsequently perfused with 10% neutral buffered formalin (˜4% formaldehyde). The organs (brain and liver) were surgically harvested and stored in 4% formaldehyde at room temperature (RT) until transfer to paraffin. Paraffin-embedded tissue sections (3-4 μm) were dewaxed in xylene and alcohol. For Ly-6G and calbindin staining, antigen retrieval was done by pre-incubating deparaffinized samples with 0.05% proteinase K (Dako, Germany) in 50 mM Tris-HCl (pH 7.5) for 8 min at RT. CTSS and lysozyme were retrieved by boiling the sections in acidic condition for 30 min. Sections were incubated with anti-Ly-6G (20 μg/ml), anti-calbindin (1:1000), anti-CTSS (20 μg/ml) or anti-lysozyme (1:20) overnight at 4° C. Reagents were prepared according to the manufacturer's instructions (Vector laboratories). The staining protocol was followed as described previously (19). The secondary antibody for neutrophil staining was biotinylated rabbit anti-rat IgG (mouse absorbed, Vector Laboratories) and for Purkinje neurons was biotinylated horse anti-mouse IgG (Vector Laboratories).
(§2) For fluorescence microscopy, FITC-conjugated IgG (MP Biomedicals, Solon, Ohio, USA) was the secondary antibody. Sections stained only with secondary antibodies served as controls. Brightfield images were acquired on a Nikon Olympus microscope, using a Nikon digital DS-Fi1-U2 camera controlled by NIS-Elements F3.0 Nikon software (all from Nikon Instruments INC, Tokyo, Japan). Images were visualized with A10 PL 10×/0.25, or a DPIan Apo 40×/1.00 oil-immersion or a DPIan Apo 100×/1.30 oil-immersion objective lens (Nikon). Fluorescence microscopy and digital image collection were performed using an Olympus IX inverted fluorescence microscope and a Photometrix cooled CCD camera (CH350/LCCD) driven by DeltaVision software from Applied Precision (Seattle, Wash., USA). DeltaVision software (softWoRx) was used to deconvolve these images. Images were visualized with 40× oil-immersion objective lens and are single optical sections. ImageJ (National Institute of Health, Bethesda, Md., USA) software was used to process and quantify the fluorescence intensity of CTSS and lysozyme.
Starting at P21 and once a week thereafter, Npc1^nih and Npc1^nmf164 mice were injected i.p with 20% 2-hydroxypropyl-beta-cyclodextrin (HPβCD, 4000 mg/Kg) prepared in 0.2% DMSO and 0.9% saline. Control mice received 0.2% DMSO in 0.9% saline. Blood was collected either via cheek bleed or terminal heart bleed from mice in EDTA tubes (BD Biosciences, San Jose, Calif., USA). Plasma was separated by centrifugation at 2500 rpm for 15 min and stored at −70° C. until used.

The test system of data set [4] is Npc1^nih Npc1^−/− mouse brain. In words: Immunohistochemistry of brain sections after HPβCD. It is filed as in vivo. To be noted: immunofluorescence. The protocol:
as §1
as §2, with “DeltaVision software (softWoRx) was used to deconvolve these images. Images were visualized with 40× oil-immersion objective lens and are single optical sections.” left out, “lysozyme. […]” for “lysozyme.”

SMILES strings stand for the structures. Entries after “also recorded” stand apart in the source; their conditions may differ.

As to `CC(O)COC[C@H]1O[C@@H]2O[C@H]3[C@H](O)[C@@H](O)[C@@H](O[C@H]4[C@H](O)[C@@H](O)[C@@H](O[C@H]5[C@H](O)[C@@H](O)[C@@H](O[C@H]6[C@H](O)[C@@H](O)[C@@H](O[C@H]7[C@H](O)[C@@H](O)[C@@H](O[C@H]8[C@H](O)[C@@H](O)[C@@H](O[C@H]1[C@H](O)[C@H]2O)O[C@@H]8COCC(C)O)O[C@@H]7COCC(C)O)O[C@@H]6COCC(C)O)O[C@@H]5COCC(C)O)O[C@@H]4COCC(C)O)O[C@@H]3COCC(C)O` (stereo partly drawn) [HPβCD, 2-hydroxypropyl-beta-cyclodextrin], in data set [1] (HPβCD-treated Npc1^−/−, late stages, untreated ~81-fold), the “Lyz1 expression in brain, fold elevation” value is listed as approximately 28 fold. Also, the “Gfap transcript in brain” value in data set [1] (HPβCD-treated Npc1^−/−, untreated ~9-fold) was “slightly reduced”. Also, the “Cd68 transcript in brain relative to Npc1^+/− mice” value in data set [1] (HPβCD-treated Npc1^−/−, untreated ~24-fold) is approximately 6 fold. Further, in data set [1] (HPβCD-treated Npc1^−/−, untreated ~44-fold), the “Mip-1α transcripts in brain, fold increase” value is on record as approximately 27 fold. For the same compound, the “transcripts of neuron specific 24-hydroxylase” value in data set [1] (NPC mouse brain, qPCR) is reported as “no effect”. Besides, in data set [1] (Npc1^−/− mice, qPCR), the “expression of Ctsb in brain” value is listed as “returned to normal levels”, the “expression of Ctsd in brain” value is listed as “partial reduction” and the “expression of Ctss in brain” value is listed as “partial reduction”. Also, the disease status entry in data set [2] is recorded as “improvement in disease status”. Also, in data set [3] (Npc1^−/− mice, anti-CTSS IHC), the “CTSS accumulation in liver” value was “dramatically reduced”; the “accumulation of foamy macrophages in liver” value was “eliminated accumulation of foamy macrophages; also recorded: eliminated the foamy macrophages and CTSS staining”. Besides, the “neutrophil clusters in liver” value in data set [3] (Npc1^−/− mice, anti-Ly-6G IHC, 50 and 80 days) is “reduced neutrophil clusters; also recorded: barely detected”. The “macrophages containing lysozyme in liver” value in data set [3] (Npc1^−/− mice, anti-lysozyme staining) is given as “largely eliminated”. Also, the hepatocyte architecture entry in data set [3] (animals treated with HPβCD, histochemistry) is on record as “decreased cytoplasmic staining with slight irregular plasma membrane”. In data set [4] (FIG. 19E-F), the “lysozyme levels in the cerebellum (white mater region)” value is “no significant effect”. Moreover, the “reduction of lysozyme in molecular layer of the cerebellum” value in data set [4] (FIG. 19I-K) was approximately 25%. In addition, the “reduction of CTSS levels in hippocampal neurons” value in data set [4] (ImageJ quantification) is on record as approximately 20%.

The record behind these values is patent US10597696B2, “Detection of Niemann-Pick disease comprising detection of lysozyme and cathepsins” (UNIVERSITY OF NOTRE DAME DU LAC, priority 2013, dated 2020).
